Assay results: PMC3429506, “Screening for Novel LRRK2 Inhibitors Using a High-Throughput TR-FRET Cellular Assay for LRRK2 Ser935 Phosphorylation” (PLoS ONE, 2012)
Several values for one entry are separate records, joined by “and”; a condition that tells them apart may be missing. Equal values may be shown once. Read-outs that look alike come from different tables or passages of the source.

Experiments:
[1] = tested on: SH-SY5Y cells expressing LRRK2-GFP G2019S; assay: Cytotoxicity assay (resazurin-based cell viability); settings: read-out: Cytotoxicity Assay IC50; same conditions as TR-FRET follow-up; one representative of two experiments
LRRK2 G2019S [2] = molecular target: T1, LRRK2 G2019S (Homo sapiens, UniProt Q5S007, G2019S); assay: In vitro biochemical LRRK2 TR-FRET activity assay; settings: for IC50: LRRK2 G2019S, ATP 134 µM (Km,app), LRRKtide substrate, three independent experiments, read-out: Biochemical LRRK2 assay IC50 +/- SD; for effect on LRRK2 activity in vitro: result in words
T1 sequence (Q5S007 whole entry G2019S): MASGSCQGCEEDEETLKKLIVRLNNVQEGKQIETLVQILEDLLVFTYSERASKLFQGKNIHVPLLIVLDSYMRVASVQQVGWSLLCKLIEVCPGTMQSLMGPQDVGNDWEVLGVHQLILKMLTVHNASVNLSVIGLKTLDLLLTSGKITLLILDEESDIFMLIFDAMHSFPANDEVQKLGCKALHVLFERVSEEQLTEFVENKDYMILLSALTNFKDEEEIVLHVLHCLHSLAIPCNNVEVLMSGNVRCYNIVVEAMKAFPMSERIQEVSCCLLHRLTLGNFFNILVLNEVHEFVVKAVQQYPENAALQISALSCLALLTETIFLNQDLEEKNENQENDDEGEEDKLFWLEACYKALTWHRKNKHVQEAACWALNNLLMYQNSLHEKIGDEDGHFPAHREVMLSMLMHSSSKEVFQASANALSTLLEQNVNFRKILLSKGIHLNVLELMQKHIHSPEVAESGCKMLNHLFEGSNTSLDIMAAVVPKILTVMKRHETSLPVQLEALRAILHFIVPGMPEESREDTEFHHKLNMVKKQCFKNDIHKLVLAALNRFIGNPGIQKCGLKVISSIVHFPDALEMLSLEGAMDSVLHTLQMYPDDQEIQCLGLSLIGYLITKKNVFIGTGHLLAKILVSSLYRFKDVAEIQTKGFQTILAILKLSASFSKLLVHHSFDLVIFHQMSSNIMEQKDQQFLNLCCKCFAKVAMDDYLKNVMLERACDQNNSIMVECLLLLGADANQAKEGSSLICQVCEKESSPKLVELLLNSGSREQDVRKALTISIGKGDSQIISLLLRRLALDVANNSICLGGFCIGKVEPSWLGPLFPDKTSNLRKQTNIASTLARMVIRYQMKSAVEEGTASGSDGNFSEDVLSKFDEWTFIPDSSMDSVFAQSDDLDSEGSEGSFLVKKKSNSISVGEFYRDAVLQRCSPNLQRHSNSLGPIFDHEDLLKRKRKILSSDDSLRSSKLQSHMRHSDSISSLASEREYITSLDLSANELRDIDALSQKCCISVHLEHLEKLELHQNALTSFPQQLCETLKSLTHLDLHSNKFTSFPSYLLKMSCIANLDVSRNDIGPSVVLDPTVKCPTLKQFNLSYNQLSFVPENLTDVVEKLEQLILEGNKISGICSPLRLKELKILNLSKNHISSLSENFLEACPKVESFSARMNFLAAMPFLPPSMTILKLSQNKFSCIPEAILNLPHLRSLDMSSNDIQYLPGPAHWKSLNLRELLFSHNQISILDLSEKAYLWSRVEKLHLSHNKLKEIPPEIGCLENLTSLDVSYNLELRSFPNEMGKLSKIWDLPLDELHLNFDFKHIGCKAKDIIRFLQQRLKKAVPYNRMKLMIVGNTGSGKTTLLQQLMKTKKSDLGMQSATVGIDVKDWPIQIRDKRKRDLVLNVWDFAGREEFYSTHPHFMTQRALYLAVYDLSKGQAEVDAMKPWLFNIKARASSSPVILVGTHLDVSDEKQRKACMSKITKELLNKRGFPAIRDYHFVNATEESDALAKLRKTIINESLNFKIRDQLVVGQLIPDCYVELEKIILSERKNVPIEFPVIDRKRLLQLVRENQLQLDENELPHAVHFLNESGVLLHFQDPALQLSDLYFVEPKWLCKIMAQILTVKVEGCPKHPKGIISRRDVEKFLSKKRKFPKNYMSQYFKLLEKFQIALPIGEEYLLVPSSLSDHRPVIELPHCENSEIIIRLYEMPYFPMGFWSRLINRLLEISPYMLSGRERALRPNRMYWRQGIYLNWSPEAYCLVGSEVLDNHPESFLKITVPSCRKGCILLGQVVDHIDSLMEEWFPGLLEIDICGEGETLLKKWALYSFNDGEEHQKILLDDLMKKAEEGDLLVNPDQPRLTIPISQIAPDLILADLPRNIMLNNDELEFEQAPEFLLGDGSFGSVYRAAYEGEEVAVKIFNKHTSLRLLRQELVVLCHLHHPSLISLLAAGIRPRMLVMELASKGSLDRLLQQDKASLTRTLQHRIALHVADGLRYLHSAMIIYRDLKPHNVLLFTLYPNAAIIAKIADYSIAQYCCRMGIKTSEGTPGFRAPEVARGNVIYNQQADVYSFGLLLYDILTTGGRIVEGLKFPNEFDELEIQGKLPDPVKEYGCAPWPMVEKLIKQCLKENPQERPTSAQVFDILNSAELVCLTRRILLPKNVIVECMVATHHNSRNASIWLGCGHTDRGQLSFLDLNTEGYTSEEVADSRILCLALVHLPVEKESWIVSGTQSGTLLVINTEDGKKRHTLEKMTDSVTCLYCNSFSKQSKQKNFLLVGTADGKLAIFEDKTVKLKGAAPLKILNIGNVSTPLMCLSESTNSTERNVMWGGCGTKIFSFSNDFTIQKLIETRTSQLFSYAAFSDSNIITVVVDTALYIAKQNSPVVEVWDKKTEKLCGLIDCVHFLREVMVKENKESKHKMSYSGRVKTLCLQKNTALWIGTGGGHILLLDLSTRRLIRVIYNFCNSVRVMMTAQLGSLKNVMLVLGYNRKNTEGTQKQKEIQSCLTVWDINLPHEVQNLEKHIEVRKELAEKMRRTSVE
Protocol: The Biochemical LRRK2 TR-FRET activity assay was performed according to the manufacture recommended assay protocol (Life Technologies). […] After incubation at room temperature for 1 hour, the kinase reactions were stopped by addition of 10 µL of 20 mM EDTA and 4 nM Tb-anti-pERM (pLRRKtide) antibody in TR-FRET dilution buffer (Life Technologies). After a 30 minute incubation at room temperature, TR-FRET measurements were obtained on a BMG PHERAstar plate reader using LanthaScreen® filters and settings. A 16 point, 2-fold dilution series of each compound was tested in triplicate at each concentration and assays were also performed in triplicate.

LRRK2 G2019S [3] = molecular target: T1, LRRK2 G2019S; assay: TR-FRET cellular assay for LRRK2 Ser935 phosphorylation, SH-SY5Y cells, BacMam LRRK2-GFP G2019S (incl. Tocriscreen Mini library screen and follow-up); type: cell-based; parameters: This high-throughput assay utilizes cells expressing full-length human LRRK2 with a C-terminal GFP tag (LRRK2-GFP); host or cells: SH-SY5Y cells transduced with BacMam; settings: for %Inhibition Initial screen / dephosphorylation of Ser935 in library screen: 20 µM; for Cellular TR-FRET Assay Max % Inhibition / IC50: dose-response follow-up; for Cellular TR-FRET Assay Max % Inhibition: 90 min; for IC50: three independent experiments, read-out: Cellular TR-FRET Assay IC50 +/-SD; for dephosphorylation of Ser935 in library screen: Tocriscreen library
Protocol: U-2 OS cells are maintained in growth medium (McCoy’s 5A supplemented with 10% dialyzed FBS (dFBS), 10 mM HEPES, 0.1 mM NEAA, 1 mM Sodium Pyruvate, and 100 U/mL Penicillin/100 µg/mL Streptomycin). HEK293T cells are maintained in DMEM with 10% dFBS, 10 mM HEPES, 0.1 mM NEAA and 100 U/mL Penicillin/100 µg/mL Streptomycin. SH-SY5Y cells are maintained in DMEM/F-12 medium supplemented with 10% dFBS and 100 U/mL Penicillin/100 µg/mL Streptomycin. […] GIBCO® human neural stem cells (hNSCs) were propagated as an adherent culture in StemPro® NSC SFM according to the manufacturer’s recommended protocol (Life Technologies). For BacMam transduction of U-2 OS and HEK293T, cells were harvested, mixed with various amounts of BacMam LRRK2-GFP reagent (v/v) and plated onto 6-well plates. […] Cells were assayed in 384-well format (∼20,000 cells/well) 48 hours post-transduction as above.
Transduced cells in the 384-well assay plate were incubated with indicated inhibitors (5X, 5 µL/well) for 60 to 90 minutes. During this time, 6 X lysis buffer (Life Technologies) was supplemented with 30 nM Tb-labeled anti-LRRK2 pSer935 antibody and both protease and phosphatase inhibitor cocktails (Sigma). The complete 6 X lysis buffer was added to each well (5 µL/well) and the plates were incubated at room temperature in the dark for 2 hours. […] A sigmoidal dose-response equation with varying slope was used to fit the data and generate IC50 values. Z′-factor values were calculated as: Z′-factor = 1 - [(3 × stdevno virus +3 × stdevmaxvirus)/(avgmaxvirus – avgno-virus)]. The IC50 values reported in Table 1 are the averaged numbers from three independent experiments.
40 nL of 10 mM Tocris library compounds in DMSO were dispensed into each well of the assay plate by the ECHO system. Equal volumes of DMSO were dispensed into the control wells. Cells were incubated with compounds for 90 to 120 min prior to cell lysis and detection as described above. The percent inhibition is calculated as: [(average emission ratios of DMSO control wells – average emission ratios of compound wells)/(average emission ratios of DMSO control wells – average emission ratios of LRRK2-IN-1 treated wells)] * 100. For the dose-response follow-up studies, fresh compound DMSO stock solutions were prepared from powder. […] Z′-factor value was calculated as: Z′-factor = 1 - [(3 × stdevLRRK2-IN-1+3 × stdevDMSO)/(avgDMSO – avgLRRK2-IN-1)]. The IC50 values reported in Table 2 are the averaged numbers from three independent experiments for both cellular and biochemical TR-FRET assays and one representative result of two independent experiments for the cytotoxicity assay.

GFP-LRRK2 G2019S = molecular target: T2, GFP-LRRK2 G2019S (Homo sapiens, UniProt Q5S007, G2019S); assay: Immunoprecipitation/Western analysis of LRRK2 phosphorylation at Ser910, Ser935, Ser955, Ser973 in HEK293 T-REx GFP-LRRK2 G2019S cells; type: cell-based; settings: for effect on phosphorylation of Ser910, Ser935, Ser955 and Ser973 (IP-Western): 20 µM, 90 min, HEK293 GFP-LRRK2 G2019S, Figure 6
T2 construct: expressed in transfected cells
T2 sequence (Q5S007 whole entry G2019S): as above
Protocol: (§1) Immunoblot analysis: BacMam LRRK2-GFP transduced U-2 OS or SH-SY5Y cells (10^7 cells) were left untreated or treated with 3 µM LRRK2-IN-I for 90 min. For lysate preparation, the cells were washed once with ice-cold PBS and lysed by addition of ice-cold lysis buffer (20 mM Tris-HCl, pH 7.4, 1% NP-40, 5 mM EDTA, 5 mM NaF, 150 mM NaCl, and 1∶100 of protease and phosphatase inhibitor cocktails). The lysate was cleared of debris by centrifugation. Equal amount of total protein was loaded onto each lane for SDS-PAGE (3–8% Tris Acetate). The proteins were transferred onto nitrocellulose membrane using the iBLOT® dry blotting system (Life Technologies) according to manufacturer’s protocol. The membranes were blocked and incubated with a primary antibody against LRRK2 (Cell Signaling Technologies), followed by incubation with alkaline phosphatase-conjugated secondary antibody (WesternBreeze® chromogenic Kit, Life Technologies). The blot was developed by using the chromogenic BCIP/NBT substrate (WesternBreeze® chromogenic Kit, Life Technologies). […] Two days post induction, cells were treated for 90 minutes in the presence of 20 µM of compound or DMSO vehicle control. Cells were rapidly lysed in ice cold lysis buffer 50 mM Tris/HCl, pH 7.5, 1 mM EGTA, 1 mM EDTA, […] 1 mM sodium orthovanadate, 10 mM sodium beta-glycerolphosphate, 50 mM NaF, 5 mM sodium pyrophosphate, 0.27 M sucrose, 1 mM benzamidine and 2 mM phenylmethanesulphonylfluoride (PMSF) and one tablet each complete protease inhibitor and PhosSTOP phosphatase inhibitor (Roche) and was supplemented with 1% (v/v) Triton X-100. GFP-LRRK2 was immunoprecipitated with GFP nanotrap beads (ChromoTek). Immunecomplexes were washed twice with lysis buffer supplemented with 300 mM NaCl and once with Buffer A (50 mM Tris/HCl, pH 7.5, 50 mM NaCl, 0.1 mM EGTA and 0.1% (v/v) 2-mercaptoethanol, and 0.27 M sucrose).

[4] = tested on: SH-SY5Y cells expressing LRRK2-GFP G2019S
LRRK2 A2016T/G2019S = molecular target: T3, LRRK2 A2016T/G2019S (Homo sapiens, UniProt Q5S007, A2016T/G2019S); assay: Immunoprecipitation/Western analysis of LRRK2 phosphorylation in T-REx HEK293 cells expressing inhibitor desensitizing mutant; type: cell-based; settings: for effect of desensitizing mutation A2016T/G2019S on compound-induced dephosphorylation (IP-Western): 20 µM, Figure 6 IRM
T3 construct: expressed in transfected cells
T3 sequence (Q5S007 whole entry A2016T/G2019S): as the sequence (Q5S007 whole entry G2019S) above, with A2016T counted along it
Protocol: as §1

[5] = Tocriscreen Mini library screen, SH-SY5Y G2019S, relative to LRRK2-IN-1 control

Row | Structure (SMILES) | IC50 (LRRK2 G2019S [2]) [µM] | Cellular TR-FRET Assay Max % Inhibition (LRRK2 G2019S [3]; SH-SY5Y G2019S) [%] | IC50 (LRRK2 G2019S [3]; SH-SY5Y G2019S) [µM] | effect on phosphorylation of Ser910, Ser935, Ser955 and Ser973 (IP-Western) (GFP-LRRK2 G2019S) | %Inhibition Initial screen (LRRK2 G2019S [3]; [5]) [%] | IC50 [4] [µM] | other results
1 | O=C(O)/C=C\C(=O)O.O=C1/C(=C/c2ccccc2)C[C@@]2(O)[C@H]3Cc4ccc(O)c5c4[C@@]2(CCN3CC2CC2)[C@H]1O5 [BNTX maleate] | > 100 | 88 | 4 | moderately reduced phosphorylation of all four residues |  |  | IC50 [1]: > 20 µM; effect on LRRK2 activity in vitro (LRRK2 G2019S [2]): did not repress LRRK2 activity in vitro; %Inhibition Initial screen (LRRK2 G2019S [3]): 70% and 69.7%
2 | O=C(CCCN1CCC2(CC1)C(=O)N(Cc1cccc(F)c1)CN2c1ccccc1)c1ccc(F)cc1.O=C(O)/C=C\C(=O)O [3′-fluorobenzylspiperone maleate] |  |  |  |  | 53 |  | 
3 | C[C@@H](N)[C@H]1CC[C@H](C(=O)Nc2ccncc2)CC1 [Y-27632] |  | 69 |  |  | 67.3 | > 20 | 
4 | CN(C)CCCn1cc(C2=C(c3c[nH]c4ccccc34)C(=O)NC2=O)c2ccccc21 [GF109203X] |  |  |  |  |  |  | dephosphorylation of Ser935 in library screen (LRRK2 G2019S [3]; SH-SY5Y G2019S): did not observe in vivo dephosphorylation of Ser935
5 | CC(C)[C@H](CO)Nc1nc(Nc2cc(N)cc(Cl)c2)c2ncn(C(C)C)c2n1 [Aminopurvalanol A] |  | 50 | 1.4 |  | 56.2 | > 20 | 
6 | O=C1C(SCCO)=C(SCCO)C(=O)c2ccccc21 [NSC 95397] | 15 | 80 | 1.3 | moderately reduced phosphorylation of all four residues | 76.1 |  | IC50 [1]: 7.8 µM
7 | [O-][S+](c1ccccc1)c1ccc2nnnn2n1 (stereo not shown) [Ro 106-9920] | > 100 | 76 | 7.6 |  | 69.8 | 20 | effect on LRRK2 activity in vitro (LRRK2 G2019S [2]): did not repress LRRK2 activity in vitro; suppression of LRRK2 phosphorylation on Ser935 (GFP-LRRK2 G2019S; HEK293 cells): approximately 50%
8 | O=C(NCCCNc1nc(Nc2cccc(NC(=O)N3CCCC3)c2)ncc1I)c1cccs1 [BX-795] |  |  |  | inhibited LRRK2 cellular phosphorylation |  |  | effect of desensitizing mutation A2016T/G2019S on compound-induced dephosphorylation (IP-Western) (LRRK2 A2016T/G2019S): rescued phosphorylation
9 | Cn1cc(C2=C(c3cn(CCCSC(=N)N)c4ccccc34)C(=O)NC2=O)c2ccccc21 [Ro31-8220] |  |  |  |  |  |  | dephosphorylation of Ser935 in library screen (LRRK2 G2019S [3]; SH-SY5Y G2019S): did not observe in vivo dephosphorylation of Ser935
10 | NC(=O)Nc1sc(-c2ccc(F)cc2)cc1C(N)=O [TPCA-1] |  | 50 | 0.1 |  | 54.8 |  | IC50 [1]: > 20 µM
11 | O=C(c1ccc(Nc2nccc(-c3cc4ccccc4s3)n2)cc1)N1CCC(N2CCCC2)CC1 [IKK 16] | 0.05 | 82 | 1.3 | inhibited phosphorylation of Ser910, Ser935, Ser955 and Ser973 | 81.7 | > 20 | effect of desensitizing mutation A2016T/G2019S on compound-induced dephosphorylation (IP-Western) (LRRK2 A2016T/G2019S): rescued phosphorylation
12 | CCc1ccc(OCc2ccccc2C(=O)Nc2ccc3nc(C)cc(N)c3c2)cc1 [JTC 801] | > 100 | 84 | 9.6 | moderately reduced phosphorylation of all four residues | 90.1 | 10 | effect on LRRK2 activity in vitro (LRRK2 G2019S [2]): did not repress LRRK2 activity in vitro; %Inhibition Initial screen (LRRK2 G2019S [3]; Tocriscreen Mini library screen, SH-SY5Y G2019S, relative to LRRK2-IN-1 control, listed as JTC801, 20 µM): 90%
13 | O=C1C(Cl)=C(NCCN2CCOCC2)C(=O)c2ncccc21 [NSC 663284] | 0.48 | 45 | 5.8 |  | 59.1 | 2 | 
14 | CC(C)(C)c1ccc(S(=O)(=O)/C=C/C#N)cc1 [Bay 11-7085] | > 100 | 100 | 5.3 | moderately reduced phosphorylation of all four residues | 97.5 | > 20 | effect of desensitizing mutation A2016T/G2019S on compound-induced dephosphorylation (IP-Western) (LRRK2 A2016T/G2019S): did not appear to be changed; LRRK2 phosphorylation remaining, % of untreated G2019S (LRRK2 A2016T/G2019S; 293 cells, LRRK2 G2019S/A2016T): 50%; effect on LRRK2 activity in vitro (LRRK2 G2019S [2]): did not repress LRRK2 activity in vitro; LRRK2 phosphorylation remaining, % of untreated G2019S (GFP-LRRK2 G2019S; 293 cells, LRRK2 G2019S): 50%
15 | Nc1nc(Nc2ccccc2)nc2c1ncn2[C@@H]1O[C@H](CO)[C@@H](O)[C@H]1O [CV1808] |  |  |  |  | 55 |  | 
16 | O=C1NC(=O)c2c1c1c3ccccc3n3c1c1c2c2ccccc2n1C1CCC3O1 [SB 218078] |  | 54 | 9.5 | moderately reduced phosphorylation of all four residues | 55.3 |  | effect of desensitizing mutation A2016T/G2019S on compound-induced dephosphorylation (IP-Western) (LRRK2 A2016T/G2019S): did not appear to be changed; IC50 [1]: > 20 µM
